#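 Tested at 5 concentrations; 48 h exposure; 96-well plates; endpoints linearly interpolated, else capped at highest concentration. The concentration for full growth arrest is given as TGI.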
# Columns and labels:
# Test in all cases: DTP human tumour cell line panel, 48 h
# HOP-92 NSCLC = tested on: HOP-92 NSCLC
# UACC-257 melanoma = tested on: UACC-257 melanoma
# ACHN renal = tested on: ACHN renal
# KM12 colon = tested on: KM12 colon
# MALME-3M melanoma = tested on: MALME-3M melanoma
# SN12C renal = tested on: SN12C renal
# UO-31 renal = tested on: UO-31 renal
# SK-MEL-28 melanoma = tested on: SK-MEL-28 melanoma
# OVCAR-3 ovarian = tested on: OVCAR-3 ovarian
# OVCAR-4 ovarian = tested on: OVCAR-4 ovarian
# IGROV1 ovarian = tested on: IGROV1 ovarian
# NCI-H226 lung = tested on: NCI-H226 lung
# HS 578T breast = tested on: HS 578T breast
# K-562 leukemia = tested on: K-562 leukemia
# RXF 393 renal = tested on: RXF 393 renal
# SF-539 CNS = tested on: SF-539 CNS
# HCT-116 colon = tested on: HCT-116 colon
# HCT-15 colon = tested on: HCT-15 colon
# MDA-MB-231 breast = tested on: MDA-MB-231 breast
# SK-OV-3 ovarian = tested on: SK-OV-3 ovarian
# NCI-H522 lung = tested on: NCI-H522 lung
# MCF7 breast = tested on: MCF7 breast
# 786-0 renal = tested on: 786-0 renal
# SNB-19 CNS = tested on: SNB-19 CNS
# NCI-H23 lung = tested on: NCI-H23 lung
# OVCAR-8 ovarian = tested on: OVCAR-8 ovarian
# MDA-N = tested on: MDA-N
# COLO 205 colon = tested on: COLO 205 colon
# OVCAR-5 ovarian = tested on: OVCAR-5 ovarian
# T-47D breast = tested on: T-47D breast
# HOP-62 NSCLC = tested on: HOP-62 NSCLC
# HL-60(TB) leukemia = tested on: HL-60(TB) leukemia
# HCC-2998 colon = tested on: HCC-2998 colon
# DU-145 prostate = tested on: DU-145 prostate
# PC-3 prostate = tested on: PC-3 prostate
# SF-295 CNS = tested on: SF-295 CNS
# A549 NSCLC = tested on: A549 NSCLC
# NCI/ADR-RES ovarian = tested on: NCI/ADR-RES ovarian
# SR leukemia = tested on: SR leukemia
# A498 renal = tested on: A498 renal
# LOX IMVI melanoma = tested on: LOX IMVI melanoma
# SK-MEL-5 melanoma = tested on: SK-MEL-5 melanoma
# M14 melanoma = tested on: M14 melanoma
# SF-268 CNS = tested on: SF-268 CNS
# HT29 colon = tested on: HT29 colon
# MDA-MB-435 = tested on: MDA-MB-435
# UACC-62 melanoma = tested on: UACC-62 melanoma
# RPMI-8226 leukemia = tested on: RPMI-8226 leukemia
# EKVX NSCLC = tested on: EKVX NSCLC
# SNB-75 CNS = tested on: SNB-75 CNS
# CAKI-1 renal = tested on: CAKI-1 renal
# SK-MEL-2 melanoma = tested on: SK-MEL-2 melanoma
# U251 CNS = tested on: U251 CNS
# SW-620 colon = tested on: SW-620 colon
# NCI-H460 lung = tested on: NCI-H460 lung
# BT-549 breast = tested on: BT-549 breast
# TK-10 renal = tested on: TK-10 renal
# CCRF-CEM leukemia = tested on: CCRF-CEM leukemia
# MOLT-4 leukemia = tested on: MOLT-4 leukemia
smiles,measurement,setting,value
CCOC(=O)C(C(N)=O)c1nc2cc([N+](=O)[O-])ccc2nc1/C=C(\O)c1ccccc1 (stereo not drawn),TGI,HOP-92 NSCLC,39.1 µM
same,TGI,UACC-257 melanoma,40.4 µM
same,TGI,ACHN renal,30.7 µM
same,TGI,KM12 colon,26.5 µM
same,TGI,MALME-3M melanoma,36.7 µM
same,TGI,SN12C renal,64.4 µM
same,TGI,UO-31 renal,36.6 µM
same,TGI,SK-MEL-28 melanoma,86.9 µM
same,TGI,OVCAR-3 ovarian,22 µM
same,TGI,OVCAR-4 ovarian,34.7 µM
same,TGI,IGROV1 ovarian,24.8 µM
same,TGI,NCI-H226 lung,> 100 µM
same,TGI,HS 578T breast,51.2 µM
same,TGI,K-562 leukemia,13.9 µM
same,TGI,RXF 393 renal,39.3 µM
same,TGI,SF-539 CNS,30.2 µM
same,TGI,HCT-116 colon,32.7 µM
same,TGI,HCT-15 colon,28.4 µM
same,TGI,MDA-MB-231 breast,27 µM
same,TGI,SK-OV-3 ovarian,29 µM
same,TGI,NCI-H522 lung,29.3 µM
same,TGI,MCF7 breast,24.8 µM
same,TGI,786-0 renal,25.5 µM
same,TGI,SNB-19 CNS,44.5 µM
same,TGI,NCI-H23 lung,23.7 µM
same,TGI,OVCAR-8 ovarian,30 µM
same,TGI,MDA-N,40.4 µM
same,TGI,COLO 205 colon,36.5 µM
same,TGI,OVCAR-5 ovarian,83.3 µM
same,TGI,T-47D breast,71.8 µM
same,TGI,HOP-62 NSCLC,22.9 µM
same,TGI,HL-60(TB) leukemia,26 µM
same,TGI,HCC-2998 colon,21.7 µM
same,TGI,DU-145 prostate,31 µM
same,TGI,PC-3 prostate,30.2 µM
same,TGI,SF-295 CNS,42.5 µM
same,TGI,A549 NSCLC,32.8 µM
same,TGI,NCI/ADR-RES ovarian,34.8 µM
same,TGI,SR leukemia,16.5 µM
same,TGI,A498 renal,33.2 µM
same,TGI,LOX IMVI melanoma,28.7 µM
same,TGI,SK-MEL-5 melanoma,30.4 µM
same,TGI,M14 melanoma,34.3 µM
same,TGI,SF-268 CNS,32.1 µM
same,TGI,HT29 colon,45.3 µM
same,TGI,MDA-MB-435,31.3 µM
same,TGI,UACC-62 melanoma,34.9 µM
same,TGI,RPMI-8226 leukemia,27.1 µM
same,TGI,EKVX NSCLC,76.5 µM
same,TGI,SNB-75 CNS,43.1 µM
same,TGI,CAKI-1 renal,52 µM
same,TGI,SK-MEL-2 melanoma,30.4 µM
same,TGI,U251 CNS,23.4 µM
same,TGI,SW-620 colon,33.9 µM
same,TGI,NCI-H460 lung,26.1 µM
same,TGI,BT-549 breast,49.9 µM
same,TGI,TK-10 renal,22.9 µM
CCOC(=O)C1(C(C)=O)OC(=O)c2cnccc21 (stereo not drawn),TGI,HOP-92 NSCLC,> 100 µM
same,TGI,UACC-257 melanoma,> 100 µM
same,TGI,ACHN renal,> 100 µM
same,TGI,KM12 colon,> 100 µM
same,TGI,MALME-3M melanoma,> 100 µM
same,TGI,SN12C renal,> 100 µM
same,TGI,UO-31 renal,> 100 µM
same,TGI,CCRF-CEM leukemia,> 100 µM
same,TGI,SK-MEL-28 melanoma,> 100 µM
same,TGI,OVCAR-3 ovarian,> 100 µM
same,TGI,IGROV1 ovarian,> 100 µM
same,TGI,NCI-H226 lung,> 100 µM
same,TGI,HS 578T breast,> 100 µM
same,TGI,K-562 leukemia,> 100 µM
same,TGI,RXF 393 renal,> 100 µM
same,TGI,SF-539 CNS,> 100 µM
same,TGI,HCT-116 colon,> 100 µM
same,TGI,HCT-15 colon,> 100 µM
same,TGI,MDA-MB-231 breast,> 100 µM
same,TGI,SK-OV-3 ovarian,> 100 µM
same,TGI,NCI-H522 lung,> 100 µM
same,TGI,MCF7 breast,> 100 µM
same,TGI,786-0 renal,> 100 µM
same,TGI,SNB-19 CNS,> 100 µM
same,TGI,NCI-H23 lung,> 100 µM
same,TGI,OVCAR-8 ovarian,> 100 µM
same,TGI,MDA-N,> 100 µM
same,TGI,COLO 205 colon,> 100 µM
same,TGI,OVCAR-5 ovarian,> 100 µM
same,TGI,T-47D breast,> 100 µM
same,TGI,HL-60(TB) leukemia,> 100 µM
same,TGI,HCC-2998 colon,> 100 µM
same,TGI,DU-145 prostate,> 100 µM
same,TGI,PC-3 prostate,> 100 µM
same,TGI,SF-295 CNS,> 100 µM
same,TGI,A549 NSCLC,> 100 µM
same,TGI,NCI/ADR-RES ovarian,> 100 µM
same,TGI,SR leukemia,> 100 µM
same,TGI,A498 renal,> 100 µM
same,TGI,LOX IMVI melanoma,> 100 µM
same,TGI,SK-MEL-5 melanoma,> 100 µM
same,TGI,M14 melanoma,> 100 µM
same,TGI,SF-268 CNS,> 100 µM
same,TGI,HT29 colon,> 100 µM
same,TGI,MDA-MB-435,> 100 µM
same,TGI,UACC-62 melanoma,> 100 µM
same,TGI,RPMI-8226 leukemia,> 100 µM
same,TGI,EKVX NSCLC,> 100 µM
same,TGI,SNB-75 CNS,> 100 µM
same,TGI,CAKI-1 renal,> 100 µM
same,TGI,SK-MEL-2 melanoma,> 100 µM
same,TGI,U251 CNS,> 100 µM
same,TGI,SW-620 colon,> 100 µM
same,TGI,MOLT-4 leukemia,> 100 µM
same,TGI,NCI-H460 lung,> 100 µM
same,TGI,BT-549 breast,> 100 µM

# — PubChem BioAssay (NCI)
